For 25 compounds, IC50 results are on record in patent US20260297080A1, “BICYCLIC COMPOUNDS AS CDK INHIBITORS” (BeOne Medicines I GmbH, priority 2022, published 2026).

Each structure is given as a SMILES string.

One experiment concerns the target CDK2/Cyclin E1 (Homo sapiens, UniProt P24941). Description: CDK2/Cyclin E1 Biochemical Assay (TR-FRET), 0.060 mM ATP. Conditions: 0.15 μM Rb (Ser780)-biotin substrate, pH7.0, 60 min preincubation, 120 min reaction, room temperature. In outline:
(§1)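 Inhibitor concentrations up to 10 μM were preincubated with each cyclin–kinase complex for 60 minutes before ATP and biotinylated Rb (Ser780) substrate (0.15 μM) were added. After 120 minutes at room temperature, phosphorylation was quantified by HTRF and IC50 values were fitted with a four-parameter logistic equation.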

The target in a further experiment is CDK1/Cyclin B1 (Homo sapiens, UniProt P06493). Nature of the experiment: CDK1/Cyclin B1 Biochemical Assay (TR-FRET), 0.015 mM ATP. To be noted: 0.15 μM Rb (Ser780)-biotin substrate, pH7.0, 60 min preincubation, 120 min reaction, room temperature. In outline:
as §1

Sequence of CDK1/Cyclin B1 (P06493 whole entry): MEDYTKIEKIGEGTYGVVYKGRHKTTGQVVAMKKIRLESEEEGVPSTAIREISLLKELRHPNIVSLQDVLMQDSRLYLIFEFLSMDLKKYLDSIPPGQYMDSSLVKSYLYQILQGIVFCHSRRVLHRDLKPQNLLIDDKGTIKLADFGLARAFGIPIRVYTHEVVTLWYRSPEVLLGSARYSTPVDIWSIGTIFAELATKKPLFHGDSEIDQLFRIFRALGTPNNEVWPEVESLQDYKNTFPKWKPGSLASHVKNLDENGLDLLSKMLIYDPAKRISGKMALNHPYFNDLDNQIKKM
Sequence of CDK1/Cyclin B1 (P14635 whole entry partner): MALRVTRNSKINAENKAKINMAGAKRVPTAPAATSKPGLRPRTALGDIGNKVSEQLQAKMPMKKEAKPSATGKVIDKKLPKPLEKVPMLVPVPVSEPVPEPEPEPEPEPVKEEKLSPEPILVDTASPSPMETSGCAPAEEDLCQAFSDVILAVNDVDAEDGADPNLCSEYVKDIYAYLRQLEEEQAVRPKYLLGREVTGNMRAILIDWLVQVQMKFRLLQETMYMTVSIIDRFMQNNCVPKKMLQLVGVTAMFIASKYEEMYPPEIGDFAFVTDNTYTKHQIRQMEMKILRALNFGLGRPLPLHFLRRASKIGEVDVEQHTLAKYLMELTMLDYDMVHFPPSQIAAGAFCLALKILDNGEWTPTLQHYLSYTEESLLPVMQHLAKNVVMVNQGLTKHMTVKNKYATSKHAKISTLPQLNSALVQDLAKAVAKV

Take `CC(C)NC(=O)O[C@H]1CC[C@@H](c2cc(Nc3ccc4c(c3F)CN(C)S4(=O)=O)n[nH]2)C1` (single isomer, unassigned) [Example 121a, cis-3-(3-((4-fluoro-2-methyl-1,1-dioxido-2,3-dihydrobenzo[d]isothiazol-5-yl)amino)-1H-pyrazol-5-yl)cyclopentyl isopropylcarbamate]: the IC50 against CDK2/Cyclin E1 was 5.8 nM; at CDK1/Cyclin B1 it was 425 nM.

For `CC(C)NC(=O)O[C@H]1CC[C@@H](c2cc(Nc3ccc4c(c3F)CN(C)S4(=O)=O)n[nH]2)C1` (single isomer, unassigned) [Example 121b, cis-3-(3-((4-fluoro-2-methyl-1,1-dioxido-2,3-dihydrobenzo[d]isothiazol-5-yl)amino)-1H-pyrazol-5-yl)cyclopentyl isopropylcarbamate], the IC50 on CDK2/Cyclin E1 was found to be 3.3 nM; against CDK1/Cyclin B1, 130 nM.

Turning to `CCCNC(=O)O[C@H]1CC[C@@H](c2cc(Nc3ccc4c(c3F)CN(C)S4(=O)=O)n[nH]2)C1` (single isomer, unassigned) [Example 122a, cis-3-(3-((4-fluoro-2-methyl-1,1-dioxido-2,3-dihydrobenzo[d]isothiazol-5-yl)amino)-1H-pyrazol-5-yl)cyclopentyl propylcarbamate], the concentration for half-maximal inhibition (IC50) at CDK2/Cyclin E1 turned out to be 12 nM; at CDK1/Cyclin B1, 455 nM.

On to `CCCNC(=O)O[C@H]1CC[C@@H](c2cc(Nc3ccc4c(c3F)CN(C)S4(=O)=O)n[nH]2)C1` (single isomer, unassigned) [Example 122b, cis-3-(3-((4-fluoro-2-methyl-1,1-dioxido-2,3-dihydrobenzo[d]isothiazol-5-yl)amino)-1H-pyrazol-5-yl)cyclopentyl propylcarbamate], for which the 50% inhibitory concentration (IC50) on CDK2/Cyclin E1 is 8.8 nM; against CDK1/Cyclin B1 it was 124 nM.

With `CC[C@H](C)NC(=O)O[C@H]1CC[C@@H](c2cc(Nc3ccc4c(c3F)CN(C)S4(=O)=O)n[nH]2)C1` (single isomer, unassigned) [Example 123a], the concentration for half-maximal inhibition (IC50) on CDK2/Cyclin E1 was 5.2 nM; against CDK1/Cyclin B1, 613 nM.

Take `CC[C@H](C)NC(=O)O[C@H]1CC[C@@H](c2cc(Nc3ccc4c(c3F)CN(C)S4(=O)=O)n[nH]2)C1` (single isomer, unassigned) [Example 123b]: the figures for the concentration for half-maximal inhibition (IC50) on CDK2/Cyclin E1 and at CDK1/Cyclin B1 were 2.6 nM and 219 nM, respectively.

For `CC(C)NC(=O)O[C@H]1CC[C@@H](c2cc(Nc3ccc4c(c3F)CN(CCO)S4(=O)=O)n[nH]2)C1` (single isomer, unassigned) [Example 125a, cis-3-(3-((4-fluoro-2-(2-hydroxyethyl)-1,1-dioxido-2,3-dihydrobenzo[d]isothiazol-5-yl)amino)-1H-pyrazol-5-yl)cyclopentyl isopropylcarbamate], the IC50 at CDK2/Cyclin E1 worked out at 12 nM; on CDK1/Cyclin B1, 1220 nM.

In the case of `CC(C)NC(=O)O[C@H]1CC[C@@H](c2cc(Nc3ccc4c(c3F)CN(CCO)S4(=O)=O)n[nH]2)C1` (single isomer, unassigned) [Example 125b, cis-3-(3-((4-fluoro-2-(2-hydroxyethyl)-1,1-dioxido-2,3-dihydrobenzo[d]isothiazol-5-yl)amino)-1H-pyrazol-5-yl)cyclopentyl isopropylcarbamate], the IC50 came out at 4.9 nM against CDK2/Cyclin E1 and 341 nM on CDK1/Cyclin B1.

With `CC1(NC(=O)O[C@H]2CC[C@@H](c3cc(Nc4ccc5c(c4F)CN(CCO)S5(=O)=O)n[nH]3)C2)CC1` (single isomer, unassigned) [Example 128a, cis-3-(3-((4-fluoro-2-(2-hydroxyethyl)-1,1-dioxido-2,3-dihydrobenzo[d]isothiazol-5-yl)amino)-1H-pyrazol-5-yl)cyclopentyl(1-methylcyclopropyl)carbamate], the IC50 came to 2.7 nM against CDK2/Cyclin E1 and 192 nM on CDK1/Cyclin B1.

With `CC1(NC(=O)O[C@H]2CC[C@@H](c3cc(Nc4ccc5c(c4F)CN(CCO)S5(=O)=O)n[nH]3)C2)CC1` (single isomer, unassigned) [Example 128b, cis-3-(3-((4-fluoro-2-(2-hydroxyethyl)-1,1-dioxido-2,3-dihydrobenzo[d]isothiazol-5-yl)amino)-1H-pyrazol-5-yl)cyclopentyl(1-methylcyclopropyl)carbamate], the IC50 against CDK2/Cyclin E1 was found to be 2.5 nM; against CDK1/Cyclin B1, 96 nM.

Turning to `[2H]C([2H])([2H])N1Cc2c(ccc(Nc3cc([C@@H]4CC[C@H](OC(=O)NC(C)C)C4)[nH]n3)c2F)S1(=O)=O` (single isomer, unassigned) [Example 129a, cis-3-(3-((4-fluoro-2-(methyl-d3)-1,1-dioxido-2,3-dihydrobenzo[d]isothiazol-5-yl)amino)-1H-pyrazol-5-yl)cyclopentyl isopropylcarbamate], the half-maximal inhibitory concentration (IC50) against CDK2/Cyclin E1 came out at 4.7 nM; against CDK1/Cyclin B1, 652 nM.

For `[2H]C([2H])([2H])N1Cc2c(ccc(Nc3cc([C@@H]4CC[C@H](OC(=O)NC(C)C)C4)[nH]n3)c2F)S1(=O)=O` (single isomer, unassigned) [Example 129b, cis-3-(3-((4-fluoro-2-(methyl-d3)-1,1-dioxido-2,3-dihydrobenzo[d]isothiazol-5-yl)amino)-1H-pyrazol-5-yl)cyclopentyl isopropylcarbamate], the IC50 at CDK2/Cyclin E1 was found to be 2.6 nM; against CDK1/Cyclin B1, 185 nM.

For `[2H]C([2H])([2H])N1Cc2c(ccc(Nc3cc([C@@H]4CC[C@H](OC(=O)NC5(C)CC5)C4)[nH]n3)c2F)S1(=O)=O` (single isomer, unassigned) [Example 132a, cis-3-(3-((4-fluoro-2-(methyl-d3)-1,1-dioxido-2,3-dihydrobenzo[d]isothiazol-5-yl)amino)-1H-pyrazol-5-yl)cyclopentyl(1-methylcyclopropyl)carbamate], the IC50 at CDK2/Cyclin E1 turned out to be 2.2 nM; against CDK1/Cyclin B1, 206 nM.

With `[2H]C([2H])([2H])N1Cc2c(ccc(Nc3cc([C@@H]4CC[C@H](OC(=O)NC5(C)CC5)C4)[nH]n3)c2F)S1(=O)=O` (single isomer, unassigned) [Example 132b, cis-3-(3-((4-fluoro-2-(methyl-d3)-1,1-dioxido-2,3-dihydrobenzo[d]isothiazol-5-yl)amino)-1H-pyrazol-5-yl)cyclopentyl(1-methylcyclopropyl)carbamate], the IC50 at CDK2/Cyclin E1 is 1.9 nM; against CDK1/Cyclin B1 it was 65 nM.

On to `CC(C)NC(=O)O[C@H]1CC[C@@H](c2cc(Nc3ccc4c(c3F)CN(C3COC3)S4(=O)=O)n[nH]2)C1` (single isomer, unassigned) [Example 133a, cis-3-(3-((4-fluoro-2-(oxetan-3-yl)-1,1-dioxido-2,3-dihydrobenzo[d]isothiazol-5-yl)amino)-1H-pyrazol-5-yl)cyclopentyl isopropylcarbamate], for which the results for the IC50 against CDK2/Cyclin E1 and against CDK1/Cyclin B1 were 24 nM and 1080 nM, respectively.

On to `CC(C)NC(=O)O[C@H]1CC[C@@H](c2cc(Nc3ccc4c(c3F)CN(C3COC3)S4(=O)=O)n[nH]2)C1` (single isomer, unassigned) [Example 133b, cis-3-(3-((4-fluoro-2-(oxetan-3-yl)-1,1-dioxido-2,3-dihydrobenzo[d]isothiazol-5-yl)amino)-1H-pyrazol-5-yl)cyclopentyl isopropylcarbamate], for which the IC50 came to 8.6 nM at CDK2/Cyclin E1 and 456 nM at CDK1/Cyclin B1.

For the compound `CC[C@H](C)NC(=O)O[C@H]1CC[C@@H](c2cc(Nc3ccc4c(c3F)CN(C3COC3)S4(=O)=O)n[nH]2)C1` (single isomer, unassigned) [Example 134a], the results for the half-inhibitory concentration (IC50) at CDK2/Cyclin E1 and on CDK1/Cyclin B1 were 3.8 nM and 488 nM, respectively.

Consider `CC[C@H](C)NC(=O)O[C@H]1CC[C@@H](c2cc(Nc3ccc4c(c3F)CN(C3COC3)S4(=O)=O)n[nH]2)C1` (single isomer, unassigned) [Example 134b], for which the IC50 on CDK2/Cyclin E1 stood at 1.3 nM; against CDK1/Cyclin B1, 120 nM.

For `CCCNC(=O)O[C@@H]1CC[C@H](c2cc(Nc3ccc4c(c3F)CNS4(=O)=O)n[nH]2)C1` (single isomer, unassigned) [Example 138a], the 50% inhibitory concentration (IC50) at CDK2/Cyclin E1 stood at 2.6 nM; on CDK1/Cyclin B1 it was 237 nM.

For `CCCNC(=O)O[C@H]1CC[C@@H](c2cc(Nc3ccc4c(c3F)CNS4(=O)=O)n[nH]2)C1` (single isomer, unassigned) [Example 138b], the IC50 came to 1.5 nM against CDK2/Cyclin E1 and 60 nM on CDK1/Cyclin B1.

Regarding `CC[C@H](C)NC(=O)O[C@H]1CC[C@@H](c2cc(Nc3ccc4c(c3F)CNS4(=O)=O)n[nH]2)C1` (single isomer, unassigned) [Example 139a], the IC50 turned out to be 1.2 nM at CDK2/Cyclin E1 and 223 nM against CDK1/Cyclin B1.

As to `CC[C@H](C)NC(=O)O[C@H]1CC[C@@H](c2cc(Nc3ccc4c(c3F)CNS4(=O)=O)n[nH]2)C1` (single isomer, unassigned) [Example 139b], the half-maximal inhibitory concentration (IC50) against CDK2/Cyclin E1 amounted to 0.9 nM; against CDK1/Cyclin B1 it was 52 nM.

On to `CC1(NC(=O)O[C@H]2CC[C@@H](c3cc(Nc4ccc5c(c4F)CNS5(=O)=O)n[nH]3)C2)CC1` (single isomer, unassigned) [Example 140a, cis-3-(3-((4-fluoro-1,1-dioxido-2,3-dihydrobenzo[d]isothiazol-5-yl)amino)-1H-pyrazol-5-yl)cyclopentyl(1-methylcyclopropyl)carbamate], for which the results for the IC50 against CDK2/Cyclin E1 and at CDK1/Cyclin B1 were 1.1 nM and 97 nM, respectively.

As to `CC1(NC(=O)O[C@H]2CC[C@@H](c3cc(Nc4ccc5c(c4F)CNS5(=O)=O)n[nH]3)C2)CC1` (single isomer, unassigned) [Example 140b, cis-3-(3-((4-fluoro-1,1-dioxido-2,3-dihydrobenzo[d]isothiazol-5-yl)amino)-1H-pyrazol-5-yl)cyclopentyl(1-methylcyclopropyl)carbamate], the 50% inhibitory concentration (IC50) turned out to be 1.4 nM on CDK2/Cyclin E1 and 38 nM against CDK1/Cyclin B1.

For the compound `O=C(NC1CCC(O)CC1)O[C@H]1CC[C@@H](c2cc(Nc3ccc4c(c3F)CNS4(=O)=O)n[nH]2)C1` (single isomer, unassigned) [Example 142, cis-3-(3-((4-fluoro-1,1-dioxido-2,3-dihydrobenzo[d]isothiazol-5-yl)amino)-1H-pyrazol-5-yl)cyclopentyl(4-hydroxycyclohexyl)carbamate], the values for the IC50 against CDK2/Cyclin E1 and at CDK1/Cyclin B1 were 1.2 nM and 46 nM, respectively.
